Results from US9216999B2, “Substituted pyrrolo[2,3-h][1,6]naphthyridines and compositions thereof as JAK inhibitors” (priority 2011, dated 2015).
Read-outs that look alike come from different tables or passages of the source.

Columns and labels:
Type in all cases: biochemical
[1] = target: JAK1 (Homo sapiens (Human), UniProt P23458); test: Enzyme assay (Assay Example^a 1), JAK1; conditions: ATP 100 μM
[2] = target: JAK2 (Homo sapiens (Human), UniProt O60674); test: Enzyme assay (Assay Example^a 1), JAK2
[3] = target: JAK3 (Homo sapiens (Human), UniProt P52333); test: Enzyme assay (Assay Example^a 1), JAK3
Chain of JAK3 (P52333 whole entry): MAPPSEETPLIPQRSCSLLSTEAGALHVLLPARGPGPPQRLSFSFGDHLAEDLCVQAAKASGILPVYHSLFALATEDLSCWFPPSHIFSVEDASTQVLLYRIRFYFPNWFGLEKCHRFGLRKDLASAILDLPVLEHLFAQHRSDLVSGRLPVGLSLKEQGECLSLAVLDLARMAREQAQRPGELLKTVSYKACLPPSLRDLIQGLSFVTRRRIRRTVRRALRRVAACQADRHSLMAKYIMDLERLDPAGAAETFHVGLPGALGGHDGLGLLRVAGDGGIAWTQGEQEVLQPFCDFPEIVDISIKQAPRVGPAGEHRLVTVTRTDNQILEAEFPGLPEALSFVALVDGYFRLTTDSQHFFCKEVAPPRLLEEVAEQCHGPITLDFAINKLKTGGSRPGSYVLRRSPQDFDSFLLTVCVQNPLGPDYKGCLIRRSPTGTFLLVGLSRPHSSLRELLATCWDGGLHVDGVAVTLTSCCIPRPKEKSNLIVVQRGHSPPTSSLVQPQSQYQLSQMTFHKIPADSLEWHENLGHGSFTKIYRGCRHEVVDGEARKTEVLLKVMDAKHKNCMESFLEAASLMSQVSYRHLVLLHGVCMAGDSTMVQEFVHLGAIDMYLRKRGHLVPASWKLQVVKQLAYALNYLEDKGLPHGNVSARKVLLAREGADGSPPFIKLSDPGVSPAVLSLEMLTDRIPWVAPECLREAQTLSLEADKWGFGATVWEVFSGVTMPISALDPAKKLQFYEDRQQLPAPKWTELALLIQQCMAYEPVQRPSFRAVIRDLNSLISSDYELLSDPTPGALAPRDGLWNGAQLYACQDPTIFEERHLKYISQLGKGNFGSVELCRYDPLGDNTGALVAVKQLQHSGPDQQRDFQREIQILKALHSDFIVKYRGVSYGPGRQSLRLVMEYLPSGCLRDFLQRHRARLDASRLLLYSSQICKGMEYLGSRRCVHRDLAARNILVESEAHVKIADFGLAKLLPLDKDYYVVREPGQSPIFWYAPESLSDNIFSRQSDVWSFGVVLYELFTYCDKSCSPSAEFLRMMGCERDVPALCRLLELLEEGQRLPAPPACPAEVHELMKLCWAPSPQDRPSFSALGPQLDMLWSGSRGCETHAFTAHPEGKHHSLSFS

[4] = target: Tyk2 (Homo sapiens (Human), UniProt P29597); test: Enzyme assay (Assay Example^a 1), Tyk2; conditions: ATP 100 μM
Chain of Tyk2 (P29597 whole entry): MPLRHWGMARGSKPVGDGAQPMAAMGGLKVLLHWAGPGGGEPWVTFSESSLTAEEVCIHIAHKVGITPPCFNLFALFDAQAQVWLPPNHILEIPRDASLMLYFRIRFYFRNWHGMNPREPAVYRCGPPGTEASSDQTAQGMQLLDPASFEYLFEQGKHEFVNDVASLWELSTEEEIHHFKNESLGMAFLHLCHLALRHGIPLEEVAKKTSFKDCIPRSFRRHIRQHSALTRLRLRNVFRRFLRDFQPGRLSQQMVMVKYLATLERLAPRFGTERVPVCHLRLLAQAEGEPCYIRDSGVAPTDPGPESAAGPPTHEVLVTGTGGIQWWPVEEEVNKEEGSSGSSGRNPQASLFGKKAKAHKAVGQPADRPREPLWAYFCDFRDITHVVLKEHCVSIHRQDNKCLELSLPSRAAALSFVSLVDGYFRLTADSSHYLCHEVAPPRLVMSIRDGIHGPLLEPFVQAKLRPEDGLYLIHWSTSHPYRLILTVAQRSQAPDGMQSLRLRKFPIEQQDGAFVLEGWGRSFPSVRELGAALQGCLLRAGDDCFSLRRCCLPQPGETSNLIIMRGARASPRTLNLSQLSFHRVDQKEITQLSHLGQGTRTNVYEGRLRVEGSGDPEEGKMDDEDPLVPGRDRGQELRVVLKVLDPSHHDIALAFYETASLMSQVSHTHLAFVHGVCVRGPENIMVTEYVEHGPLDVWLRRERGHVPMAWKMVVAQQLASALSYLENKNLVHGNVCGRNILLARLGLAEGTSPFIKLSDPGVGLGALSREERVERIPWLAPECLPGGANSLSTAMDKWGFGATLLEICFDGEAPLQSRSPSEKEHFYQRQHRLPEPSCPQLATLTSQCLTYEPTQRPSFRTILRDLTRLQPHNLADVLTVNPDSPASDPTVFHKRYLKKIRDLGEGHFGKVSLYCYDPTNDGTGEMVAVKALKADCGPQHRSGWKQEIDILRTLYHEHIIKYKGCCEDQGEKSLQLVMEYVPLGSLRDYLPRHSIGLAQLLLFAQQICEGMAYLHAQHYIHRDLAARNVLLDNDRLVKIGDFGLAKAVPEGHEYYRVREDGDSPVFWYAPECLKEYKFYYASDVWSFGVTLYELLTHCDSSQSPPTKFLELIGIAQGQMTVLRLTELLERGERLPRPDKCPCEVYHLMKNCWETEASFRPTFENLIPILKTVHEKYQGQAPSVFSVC

IC50 [1] [µM]	IC50 ([2]; ATP 100 μM) [µM]	IC50 ([3]; ATP 100 μM) [µM]	IC50 [4] [µM]	SMILES	IC50 [2] [µM]	IC50 [3] [µM]	IC50 ([1]; Table^a 154) [µM]	IC50 ([2]; ATP 100 μM, Table^a 154) [µM]	IC50 ([3]; ATP 100 μM, Table^a 154) [µM]	IC50 ([4]; Table^a 154) [µM]
0.0039	0.034	0.13	0.35	FC(F)(F)C(F)(F)CNC[C@H]1CC[C@H](c2nnn3cnc4[nH]ccc4c23)CC1 [compound 342, N-{[trans-4-(7H-pyrrolo[3,2-e][1,2,3]triazolo[1,5-c]pyrimidin-1-yl)cyclohexyl]methyl}-2,2,3,3,3-pentafluoropropan-1-amine]						
0.014	0.08	0.61	0.33	c1cc2c(ncn3nnc([C@H]4CC[C@H](NC5CC5)CC4)c23)[nH]1 [392b, trans-N-cyclopropyl-4-(7H-pyrrolo[3,2-e][1,2,3]triazolo[1,5-c]pyrimidin-1-yl)cyclohexanamine]						
0.0033	0.035	0.39	0.18	NC[C@H]1CC[C@H](c2nnn3cnc4[nH]ccc4c23)CC1 [compound 371, [trans-4-(7H-Pyrrolo[3,2-e][1,2,3]triazolo[1,5-c]pyrimidin-1-yl)cyclohexyl]methanamine]						
0.0015	0.011	0.035	0.53	O=C(CC(F)(F)F)NC[C@H]1CC[C@H](c2nnn3cnc4[nH]ccc4c23)CC1 [compound 373, N-{[trans-4-(7H-Pyrrolo[3,2-e][1,2,3]triazolo[1,5-c]pyrimidin-1-yl)cyclohexyl]methyl}-3,3,3-trifluoropropanamide]						
0.0081	0.035	0.61	0.65	c1cc(CN2CCC(c3nnn4cnc5[nH]ccc5c34)CC2)ccn1 [compound 239, 1-[1-(pyridin-4-ylmethyl)piperidin-4-yl]-7H-pyrrolo[3,2-e][1,2,3]triazolo[1,5-c]pyrimidine]						
0.0045	0.017	0.054	> 1	N#Cc1ccc(CN2CCC(c3nnn4cnc5[nH]cc(Cl)c5c34)CC2)cc1 [compound 377, 4-{[4-(9-Chloro-7H-pyrrolo[3,2-e][1,2,3]triazolo[1,5-c]pyrimidin-1-yl)piperidin-1-yl]methyl}benzonitrile]						
0.0026	0.013	0.04	0.29	Clc1ccc(CN2CCC(c3nnn4cnc5[nH]ccc5c34)CC2)cn1 [compound 214, 1-{1-[(6-chloropyridin-3-yl)methyl]piperidin-4-yl}-7H-pyrrolo[3,2-e][1,2,3]triazolo[1,5-c]pyrimidine]						
0.015	0.062	0.99	0.27	FC(F)(F)CCNC[C@H]1CC[C@H](c2nnn3cnc4[nH]ccc4c23)CC1 [compound 256, N-{[trans-4-(7H-pyrrolo[3,2-e][1,2,3]triazolo[1,5-c]pyrimidin-1-yl)cyclohexyl]methyl}-3,3,3-trifluoropropan-1-amine]						
0.0025	0.022	0.082	0.37	OC1(C(F)(F)F)CN(C[C@H]2CC[C@H](c3nnn4cnc5[nH]ccc5c34)CC2)C1 [compound 425, 1-{[trans-4-(7H-Pyrrolo[3,2-e][1,2,3]triazolo[1,5-c]pyrimidin-1-yl)cyclohexyl]methyl}-3-(trifluoromethyl)azetidin-3-ol]						
0.0035	0.0061	0.069	0.27	N#CCNS(=O)(=O)C[C@H]1CC[C@H](c2nnn3cnc4[nH]ccc4c23)CC1 [compound 419, 1-[trans-4-(7H-pyrrolo[3,2-e][1,2,3]triazolo[1,5-c]pyrimidin-1-yl)cyclohexyl]-N-(cyanomethyl)methanesulfonamide]						
				O=C(NCc1ccc(F)cc1)[C@H]1CC[C@H](c2nnn3cnc4[nH]ccc4c23)CC1 [compound 207, trans-N-(4-fluorobenzyl)-4-(7H-pyrrolo[3,2-e][1,2,3]triazolo[1,5-c]pyrimidin-1-yl)cyclohexanecarboxamide]			0.009	0.055	> 1	> 1
0.0074	0.097	0.59	> 1	CC(C)(O)c1cn(C[C@H]2CC[C@H](c3nnn4cnc5[nH]ccc5c34)CC2)nn1 [compound 370, 2-(1-{[trans-4-(7H-Pyrrolo[3,2-e][1,2,3]triazolo[1,5-c]pyrimidin-1-yl)cyclohexyl]methyl}-1H-1,2,3-triazol-4-yl)propan-2-ol]						
				OCCOc1ccc(CN2CCC(c3nnn4cnc5[nH]ccc5c34)CC2)cc1 [compound 168, 2-(4-{[4-(7H-pyrrolo[3,2-e][1,2,3]triazolo[1,5-c]pyrimidin-1-yl)piperidin-1-yl]methyl}phenoxy)ethanol]			0.084	0.71	> 1	> 1
				CN(C[C@H]1CC[C@H](c2nnn3cnc4[nH]ccc4c23)CC1)c1ccc(C#N)cc1 [compound 108]			0.0039	0.024	0.58	0.58
0.0085	0.044	> 1	0.27	C#CCNC[C@H]1CC[C@H](c2nnn3cnc4[nH]ccc4c23)CC1 [compound 333, N-{[trans-4-(7H-pyrrolo[3,2-e][1,2,3]triazolo[1,5-c]pyrimidin-1-yl)cyclohexyl]methyl}prop-2-yn-1-amine]						
0.0074	0.047	> 1	0.14	CCNC[C@H]1CC[C@H](c2nnn3cnc4[nH]ccc4c23)CC1 [compound 330, N-{[trans-4-(7H-pyrrolo[3,2-e][1,2,3]triazolo[1,5-c]pyrimidin-1-yl)cyclohexyl]methyl}ethanamine]						
				Cc1cnc(CNC[C@H]2CC[C@H](c3nnn4cnc5[nH]ccc5c34)CC2)cn1 [compound 183, 1-[trans-4-(7H-pyrrolo[3,2-e][1,2,3]triazolo[1,5-c]pyrimidin-1-yl)cyclohexyl]-N-[(5-methylpyrazin-2-yl)methyl]methanamine]			0.0061	0.055	0.8	0.041
0.067	0.33	> 1	0.87	N#C[C@H]1CCN(C(=O)[C@H]2CC[C@H](c3nnn4cnc5[nH]ccc5c34)CC2)C1 [compound 357, (S)-1-[trans-4-(7H-pyrrolo[3,2-e][1,2,3]triazolo[1,5-c]pyrimidin-1-yl)cyclohexanecarbonyl]pyrrolidine-3-carbonitrile]						

SMILES	IC50 [1] [µM]	IC50 ([2]; ATP 100 μM) [µM]	IC50 ([3]; ATP 100 μM) [µM]	IC50 [4] [µM]	IC50 [2] [µM]	IC50 [3] [µM]	IC50 ([1]; Table^a 154) [µM]	IC50 ([2]; ATP 100 μM, Table^a 154) [µM]	IC50 ([3]; ATP 100 μM, Table^a 154) [µM]	IC50 ([4]; Table^a 154) [µM]
FC(F)(Br)CN[C@H]1CC[C@@H](c2nnn3cnc4[nH]ccc4c23)CC1 [382a, cis-N-(2-bromo-2,2-difluoroethyl)-4-(7H-pyrrolo[3,2-e][1,2,3]triazolo[1,5-c]pyrimidin-1-yl)cyclohexanamine]	0.015			0.76	0.063	0.75				
Cc1c(CN2CCC(c3nnn4cnc5[nH]ccc5c34)CC2)c(Cl)nn1CC(F)(F)F [compound 374, 1-{1-[(3-Chloro-5-methyl-1-(2,2,2-trifluoroethyl)-1H-pyrazol-4-yl)methyl]piperidin-4-yl}-7H-pyrrolo[3,2-e][1,2,3]triazolo[1,5-c]pyrimidine]	0.038	0.18	> 1	> 1						
c1cc2c(ncn3nnc(C4CCN(Cc5cnc(N6CCOCC6)s5)CC4)c23)[nH]1 [compound 234, 4-(5-{[4-(7H-pyrrolo[3,2-e][1,2,3]triazolo[1,5-c]pyrimidin-1-yl)piperidin-1-yl]methyl}thiazol-2-yl)morpholine]	0.36	0.88	> 1	> 1						
CN(C)[C@H]1CC[C@H](c2nnn3cnc4[nH]ccc4c23)CC1 [397b, trans-N,N-dimethyl-4-(7H-pyrrolo[3,2-e][1,2,3]triazolo[1,5-c]pyrimidin-1-yl)cyclohexanamine]	0.023	0.21	> 1	0.8						
CN1CCC(c2nnn3cnc4[nH]ccc4c23)CC1 [compound 216, 1-(1-methylpiperidin-4-yl)-7H-pyrrolo[3,2-e][1,2,3]triazolo[1,5-c]pyrimidine]	0.38		> 1	> 1	> 1					
OC12CC3CC(C1)C(NC[C@H]1CC[C@H](c4nnn5cnc6[nH]ccc6c45)CC1)C(C3)C2 (stereo partly drawn) [compound 303, (1S,3R,4r,5S,7S)-4-({[trans-4-(7H-pyrrolo[3,2-e][1,2,3]triazolo[1,5-c]pyrimidin-1-yl)cyclohexyl]methyl}amino)adamantan-1-ol]	0.057	0.35	> 1	> 1						
CC1CCCCC1c1nnn2cnc3[nH]ccc3c12 (stereo not shown) [compound 7]	0.0042	0.012		0.056		0.055				
CC(C)(C)OC(=O)NCC1CCN(C[C@H]2CC[C@H](c3nnn4cnc5[nH]ccc5c34)CC2)CC1 [compound 336, tert-butyl [(1-{[trans-4-(7H-pyrrolo[3,2-e][1,2,3]triazolo[1,5-c]pyrimidin-1-yl)cyclohexyl]methyl}piperidin-4-yl)methyl]carbamate]	0.025	0.37	> 1	> 1						
CC(C)(C)OC(=O)N[C@@H]1CCN(C[C@H]2CC[C@H](c3nnn4cnc5[nH]ccc5c34)CC2)C1 [compound 299, tert-butyl ((R)-1-{[trans-4-(7H-pyrrolo[3,2-e][1,2,3]triazolo[1,5-c]pyrimidin-1-yl)cyclohexyl]methyl}pyrrolidin-3-yl)carbamate]	0.016	0.17	> 1	> 1						
N#Cc1cc(NC[C@H]2CC[C@H](c3nnn4cnc5[nH]ccc5c34)CC2)ccc1Cl [compound 263, 5-({[trans-4-(7H-pyrrolo[3,2-e][1,2,3]triazolo[1,5-c]pyrimidin-1-yl)cyclohexyl]methyl}amino)-2-chlorobenzonitrile]	0.027	0.22	> 1	> 1						
